Assay results published in the supplement of paper PMC4862054.

Key:
Assay in all cases: drug sensitivity score (DSS), CellTiter-Glo (DSS (AUC-based score)); higher = stronger drug effect (viability inhibition or cytotoxicity); extreme values may be limits of the assay
Conditions in all cases: incubation time: 72 h
BT-474 = test system: BT-474
How it was run: (§1)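 The area under the fitted dose-response curve was used to calculate the drug sensitivity score. Cells from breast cancer lines were incubated for 72 h in 384-well plates with compound at 5 concentrations spaced 10-fold over a 10,000-fold range specific to each compound. Plates were read for CellTox Green and then CellTiter-Glo, and normalised to 0.1 % DMSO and a positive kill control.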

BT-549 = test system: BT-549
How it was run: as §1

CAL-120 = test system: CAL-120
How it was run: as §1

CAL-148 = test system: CAL-148
How it was run: as §1

CAL-51 = test system: CAL-51
How it was run: as §1

CAL-85-1 = test system: CAL-85-1
How it was run: as §1

DU-4475 = test system: DU-4475
How it was run: as §1

HCC1143 = test system: HCC1143
How it was run: as §1

HCC1599 = test system: HCC1599
How it was run: as §1

HCC1937 = test system: HCC1937
How it was run: as §1

HDQ-P1 = test system: HDQ-P1
How it was run: as §1

Hs578T = test system: Hs578T
How it was run: as §1

MCF-10A = test system: MCF-10A
How it was run: as §1

MDA-MB-231 = test system: MDA-MB-231
How it was run: as §1

MDA-MB-436 = test system: MDA-MB-436
How it was run: as §1

MDA-MB-453 = test system: MDA-MB-453
How it was run: as §1

MDA-MB-468 = test system: MDA-MB-468
How it was run: as §1

MFM-223 = test system: MFM-223
How it was run: as §1

SK-BR-3 = test system: SK-BR-3
How it was run: as §1

| SMILES | drug sensitivity score (BT-474) | drug sensitivity score (BT-549) | drug sensitivity score (CAL-120) | drug sensitivity score (CAL-148) | drug sensitivity score (CAL-51) | drug sensitivity score (CAL-85-1) | drug sensitivity score (DU-4475) | drug sensitivity score (HCC1143) | drug sensitivity score (HCC1599) | drug sensitivity score (HCC1937) | drug sensitivity score (HDQ-P1) | drug sensitivity score (Hs578T) | drug sensitivity score (MCF-10A) | drug sensitivity score (MDA-MB-231) | drug sensitivity score (MDA-MB-436) | drug sensitivity score (MDA-MB-453) | drug sensitivity score (MDA-MB-468) | drug sensitivity score (MFM-223) | drug sensitivity score (SK-BR-3) |
| --- | --- | --- | --- | --- | --- | --- | --- | --- | --- | --- | --- | --- | --- | --- | --- | --- | --- | --- | --- |
| COc1cccc2c1C(=O)c1c(O)c3c(c(O)c1C2=O)C[C@@](O)(C(=O)CO)C[C@@H]3O[C@H]1C[C@H](N)[C@H](O)[C@H](C)O1 [Doxorubicin] | 7.08 | 8.09 | 1.5 | 8.35 | 12.4 | 2.97 | 8.65 | 1.04 | 1.68 | 0 | 2.13 | 2.18 | 1.13 | 4.21 | 4.44 | 2.56 | 9.32 | 0 | 6.19 |
| Cc1ccc(F)c(NC(=O)Nc2ccc(-c3cccc4[nH]nc(N)c34)cc2)c1 [Linifanib] | 0 | 0 | 0 | 0 | 1.94 | 0 | 0 | 0 | 0 | 0 | 0 | 0 | 0 | 0 | 0 | 0 | 0 | 0 | 0 |
| CC(=O)O[C@]1(C(C)=O)CC[C@H]2[C@@H]3C=C(C)C4=CC(=O)CC[C@]4(C)[C@H]3CC[C@@]21C [Megestrol acetate] | 0 | 0 | 0 | 0 | 0 | 0 | 0 | 0 | 0 | 0 | 0 | 0 | 0 | 0 | 0 | 0 | 0 | 0 | 0 |
| S=c1[nH]cnc2nc[nH]c12 [Mercaptopurine] | 5.51 | 0 | 4.08 | 0 | 0 | 1.24 | 4 | 0 | 5.32 | 8.73 | 9.67 | 6.04 | 0 | 7.35 | 0.565 | 0 | 0 | 0 | 0 |
| Clc1ccc(C(c2ccccc2Cl)C(Cl)Cl)cc1 (centres undefined) [Mitotane] | 0 | 0 | 0 | 0 | 0 | 0 | 0 | 0 | 0 | 0 | 0 | 0 | 0 | 0 | 0 | 0 | 0 | 0 | 0 |
| CCN1CCN(c2ccc(Nc3cc(N(C)C(=O)Nc4c(Cl)c(OC)cc(OC)c4Cl)ncn3)cc2)CC1 [NVP-BGJ398] | 0 | 0 | 2.55 | 0 | 0 | 0 | 0 | 0 | 0 | 0 | 0 | 0.39 | 0 | 0 | 0 | 0 | 0 | 7.35 | 0 |
| COc1cccc2cc(-c3nc([C@H]4CC[C@H](C(=O)O)CC4)n4ncnc(N)c34)[nH]c12 [OSI-027] | 4.09 | 6.24 | 5.45 | 2.6 | 4.69 | 5.52 | 2.39 | 2.97 | 0 | 3.56 | 7.43 | 2.44 | 4.28 | 3.06 | 4.39 | 8 | 4.37 | 6.51 | 13.4 |
| OC[C@H]1O[C@@H](n2cnc3c2N=CNC[C@H]3O)C[C@@H]1O [Pentostatin] | 0.0029 | 0 | 0 | 0 | 0 | 0 | 0 | 0 | 0 | 0 | 0 | 0 | 0 | 0 | 0 | 0 | 0 | 0 | 0 |
| N#CC[C@H](C1CCCC1)n1cc(-c2ncnc3[nH]ccc23)cn1 [Ruxolitinib] | 0.693 | 0 | 1.35 | 0 | 0 | 0 | 0 | 0 | 0 | 0 | 0 | 0 | 0 | 0 | 0 | 0 | 0.173 | 1.49 | 0 |
| C=CC[C@@H]1/C=C(\C)C[C@H](C)C[C@H](OC)[C@H]2O[C@@](O)(C(=O)C(=O)N3CCCC[C@H]3C(=O)O[C@H](/C(C)=C/[C@@H]3CC[C@@H](O)[C@H](OC)C3)[C@H](C)[C@@H](O)CC1=O)[C@H](C)C[C@@H]2OC [Tacrolimus] | 0.128 | 0 | 0 | 0 | 0 | 0 | 0 | 0 | 0 | 0 | 0 | 0 | 0 | 0 | 0 | 0 | 0 | 0 | 0 |
| C=CCNC1=C2C[C@@H](C)C[C@H](OC)[C@H](O)[C@@H](C)/C=C(\C)[C@H](OC(N)=O)[C@@H](OC)/C=C\C=C(/C)C(=O)NC(=CC1=O)C2=O [Tanespimycin] | 14.5 | 18.5 | 10.5 | 16.3 | 20.7 | 13.3 | 20.2 | 18 | 8.46 | 16.5 | 19 | 15.6 | 21.6 | 14.5 | 18.2 | 23.7 | 11.3 | 16.8 | 18.3 |
| CO[C@H]1C[C@@H]2CC[C@@H](C)[C@@](O)(O2)C(=O)C(=O)N2CCCC[C@H]2C(=O)O[C@H]([C@H](C)C[C@@H]2CC[C@@H](OC(=O)C(C)(CO)CO)[C@H](OC)C2)CC(=O)[C@H](C)/C=C(\C)[C@@H](O)[C@@H](OC)C(=O)[C@H](C)C[C@H](C)/C=C/C=C/C=C/1C [Temsirolimus] | 2.49 | 12.7 | 7.34 | 8.93 | 11.3 | 9.28 | 5.2 | 8.92 | 0 | 6.15 | 4.08 | 10.1 | 0 | 0 | 3.51 | 9.78 | 14.7 | 7.59 | 11 |
| O=C(c1ccc(C(=O)N2CCC(N3CCCC3)CC2)c(Nc2ccccc2)c1)N1CCC(N2CCCC2)CC1 [UNC1215] | 0 | 0 | 0 | 0 | 0 | 0 | 0 | 0 | 0 | 0 | 0 | 0 | 0 | 0 | 0 | 0 | 0 | 0 | 0 |
| C[C@]1(c2nc3c(C(N)=O)cccc3[nH]2)CCCN1 [Veliparib] | 0.587 | 0 | 0 | 0 | 3.97 | 0 | 0 | 0 | 0 | 0 | 0 | 0 | 0 | 0 | 0 | 0 | 0 | 0 | 0 |
| CC[C@]1(O)C[C@@H]2CN(CCc3c([nH]c4ccccc34)[C@@](C(=O)OC)(c3cc4c(cc3OC)N(C)[C@H]3[C@@](O)(C(=O)OC)[C@H](OC(C)=O)[C@]5(CC)C=CCN6CC[C@]43[C@@H]65)C2)C1 [Vinblastine] | 14.3 | 21.3 | 14.2 | 13 | 18.4 | 20.7 | 8.05 | 15.8 | 17.2 | 9.45 | 7.5 | 20.3 | 10.9 | 16.2 | 22.8 | 13.1 | 21.1 | 13 | 27.5 |
| CS(=O)(=O)c1ccc(C(=O)Nc2ccc(Cl)c(-c3ccccn3)c2)c(Cl)c1 [Vismodegib] | 0 | 0 | 0 | 0 | 0 | 0 | 0 | 0 | 0 | 0 | 0 | 0 | 0 | 0 | 0 | 0 | 0 | 0 | 0 |
